Where two headings read alike, the source gives them in different places.
Biological target: human Cav2.2 (Homo sapiens, UniProt Q00975)
Experiment: Assessment of calcium channel activity using FLIPR (Ca2+ influx in IMR32 cells)
Type: cell-based
How it was run: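 Human neuroblastoma IMR32 cells were seeded at 1−1.2×10^5 cells/well and cultured 48 h at 37 °C before FLIPR calcium influx measurement. Percent inhibition at each concentration was calculated against the no-inhibitor signal, and IC50 came from sigmoidal dose-response fits.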

[1] = read-out: IC50 (μM) or percent inhibition (* indicates 3 minute incubation, otherwise 60 minute), IC50, 60 minute pre-incubation with compound, IMR32 cells, 80 mM KCl depolarization

human Cav2.2, sequence (Q00975 whole entry): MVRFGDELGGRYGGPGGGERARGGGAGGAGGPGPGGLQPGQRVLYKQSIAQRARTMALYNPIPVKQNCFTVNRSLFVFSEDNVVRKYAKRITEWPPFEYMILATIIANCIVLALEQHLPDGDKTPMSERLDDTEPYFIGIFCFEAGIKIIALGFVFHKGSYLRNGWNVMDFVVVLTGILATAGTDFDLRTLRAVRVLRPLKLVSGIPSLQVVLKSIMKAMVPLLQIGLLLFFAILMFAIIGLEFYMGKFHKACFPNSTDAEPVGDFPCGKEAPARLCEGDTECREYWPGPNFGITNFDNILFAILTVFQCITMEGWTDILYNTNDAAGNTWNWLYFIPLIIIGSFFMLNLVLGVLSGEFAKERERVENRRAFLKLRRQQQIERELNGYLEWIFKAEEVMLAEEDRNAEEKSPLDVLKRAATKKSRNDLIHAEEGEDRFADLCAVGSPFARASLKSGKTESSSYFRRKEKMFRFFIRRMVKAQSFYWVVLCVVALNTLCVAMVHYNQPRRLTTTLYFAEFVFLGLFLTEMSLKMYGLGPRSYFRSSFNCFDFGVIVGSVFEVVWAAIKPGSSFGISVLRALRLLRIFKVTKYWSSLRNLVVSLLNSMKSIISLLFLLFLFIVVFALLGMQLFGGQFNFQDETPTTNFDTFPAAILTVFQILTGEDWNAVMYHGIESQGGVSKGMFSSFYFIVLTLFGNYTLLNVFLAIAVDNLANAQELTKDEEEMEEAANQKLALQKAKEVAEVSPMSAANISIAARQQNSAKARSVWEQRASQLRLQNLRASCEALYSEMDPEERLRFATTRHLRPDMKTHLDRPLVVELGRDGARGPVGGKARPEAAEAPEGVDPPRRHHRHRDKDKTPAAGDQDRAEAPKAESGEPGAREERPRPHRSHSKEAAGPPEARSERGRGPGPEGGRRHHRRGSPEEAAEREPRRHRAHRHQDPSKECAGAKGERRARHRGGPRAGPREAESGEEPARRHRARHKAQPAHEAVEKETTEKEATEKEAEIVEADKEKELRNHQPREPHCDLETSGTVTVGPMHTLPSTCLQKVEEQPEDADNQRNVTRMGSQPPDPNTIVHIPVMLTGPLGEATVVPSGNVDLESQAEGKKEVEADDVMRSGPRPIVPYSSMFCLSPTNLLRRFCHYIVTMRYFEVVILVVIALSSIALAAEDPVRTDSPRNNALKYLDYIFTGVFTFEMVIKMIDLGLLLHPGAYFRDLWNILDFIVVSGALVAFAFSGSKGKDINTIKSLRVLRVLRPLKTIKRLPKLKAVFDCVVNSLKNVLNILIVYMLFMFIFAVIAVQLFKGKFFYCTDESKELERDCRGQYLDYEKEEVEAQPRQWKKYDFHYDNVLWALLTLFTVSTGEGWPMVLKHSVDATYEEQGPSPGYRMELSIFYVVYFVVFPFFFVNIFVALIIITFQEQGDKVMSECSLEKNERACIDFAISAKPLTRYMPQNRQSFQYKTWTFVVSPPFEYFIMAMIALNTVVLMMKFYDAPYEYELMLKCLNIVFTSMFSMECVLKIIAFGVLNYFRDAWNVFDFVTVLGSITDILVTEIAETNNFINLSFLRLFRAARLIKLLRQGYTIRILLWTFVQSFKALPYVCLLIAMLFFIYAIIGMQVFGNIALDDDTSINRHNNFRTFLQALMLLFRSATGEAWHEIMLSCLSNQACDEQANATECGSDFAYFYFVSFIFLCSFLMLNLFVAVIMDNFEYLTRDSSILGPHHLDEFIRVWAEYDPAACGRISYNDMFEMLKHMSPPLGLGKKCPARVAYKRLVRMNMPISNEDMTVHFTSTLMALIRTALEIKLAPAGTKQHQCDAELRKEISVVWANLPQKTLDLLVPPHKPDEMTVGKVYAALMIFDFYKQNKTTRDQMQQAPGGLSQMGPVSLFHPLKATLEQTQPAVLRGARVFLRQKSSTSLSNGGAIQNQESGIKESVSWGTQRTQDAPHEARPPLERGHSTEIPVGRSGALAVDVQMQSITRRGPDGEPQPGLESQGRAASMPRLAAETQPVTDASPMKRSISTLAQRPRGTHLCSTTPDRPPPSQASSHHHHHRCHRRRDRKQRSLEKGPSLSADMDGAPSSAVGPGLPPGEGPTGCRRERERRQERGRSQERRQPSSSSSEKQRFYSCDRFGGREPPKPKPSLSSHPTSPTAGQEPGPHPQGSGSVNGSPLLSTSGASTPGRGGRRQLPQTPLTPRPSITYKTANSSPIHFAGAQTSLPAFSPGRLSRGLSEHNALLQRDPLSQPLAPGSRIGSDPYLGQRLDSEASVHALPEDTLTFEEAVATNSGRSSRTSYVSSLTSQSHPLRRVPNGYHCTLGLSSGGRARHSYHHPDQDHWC
human Cav2.2, sequence (P54289 25-956 partner limits assumed): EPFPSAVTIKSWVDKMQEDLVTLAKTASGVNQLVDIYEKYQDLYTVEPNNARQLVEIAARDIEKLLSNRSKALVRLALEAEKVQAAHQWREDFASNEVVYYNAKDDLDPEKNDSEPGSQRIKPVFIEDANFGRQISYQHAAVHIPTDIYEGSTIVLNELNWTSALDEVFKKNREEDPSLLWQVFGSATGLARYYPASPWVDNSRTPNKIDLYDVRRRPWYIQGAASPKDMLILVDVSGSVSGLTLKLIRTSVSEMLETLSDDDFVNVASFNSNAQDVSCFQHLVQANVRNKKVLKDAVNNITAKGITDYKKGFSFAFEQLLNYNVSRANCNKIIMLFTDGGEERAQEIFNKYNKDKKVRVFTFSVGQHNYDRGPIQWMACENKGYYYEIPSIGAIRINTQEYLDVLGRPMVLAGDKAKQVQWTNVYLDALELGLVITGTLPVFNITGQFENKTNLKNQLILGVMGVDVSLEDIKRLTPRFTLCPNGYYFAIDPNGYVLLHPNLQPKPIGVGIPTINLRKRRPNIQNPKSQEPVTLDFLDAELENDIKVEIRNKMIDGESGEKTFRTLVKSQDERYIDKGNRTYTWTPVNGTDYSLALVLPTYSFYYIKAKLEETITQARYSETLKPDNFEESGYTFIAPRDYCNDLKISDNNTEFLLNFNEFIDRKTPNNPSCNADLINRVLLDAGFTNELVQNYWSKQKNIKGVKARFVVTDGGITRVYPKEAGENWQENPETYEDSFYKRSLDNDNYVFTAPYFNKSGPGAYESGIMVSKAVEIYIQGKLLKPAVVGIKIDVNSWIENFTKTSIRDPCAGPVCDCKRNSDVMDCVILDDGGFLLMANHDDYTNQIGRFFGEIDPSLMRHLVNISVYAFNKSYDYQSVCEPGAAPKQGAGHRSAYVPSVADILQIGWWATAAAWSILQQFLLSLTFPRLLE
human Cav2.2, sequence (P54289 957-1103 partner limits assumed): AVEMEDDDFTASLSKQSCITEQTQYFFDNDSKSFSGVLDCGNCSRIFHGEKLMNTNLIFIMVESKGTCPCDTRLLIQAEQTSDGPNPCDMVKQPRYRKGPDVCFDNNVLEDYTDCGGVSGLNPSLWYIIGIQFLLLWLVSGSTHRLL
human Cav2.2, sequence (P54284 whole entry partner): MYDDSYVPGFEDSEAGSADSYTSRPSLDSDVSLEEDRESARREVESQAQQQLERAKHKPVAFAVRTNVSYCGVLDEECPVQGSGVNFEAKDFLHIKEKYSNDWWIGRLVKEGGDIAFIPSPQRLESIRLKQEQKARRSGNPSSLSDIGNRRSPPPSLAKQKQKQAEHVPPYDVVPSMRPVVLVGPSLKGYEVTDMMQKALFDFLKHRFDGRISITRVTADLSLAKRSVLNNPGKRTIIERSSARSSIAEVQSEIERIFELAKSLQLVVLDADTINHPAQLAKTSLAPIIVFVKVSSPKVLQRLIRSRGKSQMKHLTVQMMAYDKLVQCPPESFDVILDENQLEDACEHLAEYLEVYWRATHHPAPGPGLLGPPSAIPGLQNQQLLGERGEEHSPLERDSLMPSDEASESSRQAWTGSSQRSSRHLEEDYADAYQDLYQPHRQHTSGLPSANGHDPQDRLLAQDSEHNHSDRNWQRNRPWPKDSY

SMILES	IC50 [µM]	IC50 [1] [µM]
N#Cc1ccccc1N1C[C@H]2CC[C@H](NC(=O)[C@@H]3C[C@@H](F)CN3)[C@H]2C1 [Example 651, (4R)-N-[(3aR,4S,6aS)-2-(2-cyanophenyl)octahydrocyclopenta[c]pyrrol-4-yl]-4-fluoro-L-prolinamide]	14.9	
O=S(=O)(N[C@H]1CC[C@H]2CN(Cc3cccc(C(F)(F)F)c3)C[C@H]21)c1cccc(C(F)(F)F)c1 [Example 187, 3-(trifluoromethyl)-N-{(3aS,4S,6aR)-2-[3-(trifluoromethyl)benzyl]octahydrocyclopenta[c]pyrrol-4-yl}benzenesulfonamide]		1.24
CC(C)N[C@H]1CC[C@@H]2CN(c3cccc(C(F)(F)F)n3)C[C@@H]21 [Example 609, (3aR,4S,6aS)-N-isopropyl-2-[6-(trifluoromethyl)pyridin-2-yl]octahydrocyclopenta[c]pyrrol-4-amine]	1.45	
C[C@H](C(=O)N[C@@H]1CC[C@H]2CN(Cc3ccccc3)C[C@H]21)c1cccc(C(=O)c2ccccc2)c1 (relative stereo) [Example 13, (2S)-2-(3-benzoylphenyl)-N-[(3aS*,4R*,6aR*)-2-benzyloctahydrocyclopenta[c]pyrrol-4-yl]propanamide]		23.6
CN[C@@H](CC(C)C)C(=O)N[C@H]1CC[C@@H]2CN(c3cncc(C(F)(F)F)c3)C[C@@H]21 [Example 736, N^2-methyl-N-{(3aR,4S,6aS)-2-[5-(trifluoromethyl)pyridin-3-yl]octahydrocyclopenta[c]pyrrol-4-yl}-L-leucinamide]	3.34	
CN[C@@H](CC(C)C)C(=O)N[C@H]1CC[C@@H]2CN(c3cccc(Cl)c3)C[C@@H]21 [Example 628, N-[(3aR,4S,6aS)-2-(3-chlorophenyl)octahydrocyclopenta[c]pyrrol-4-yl]-N^2-methyl-L-leucinamide]	3.53	
CCCC(CCC)C(=O)N[C@H]1CC[C@H]2CN(Cc3cccc(C(F)(F)F)c3)C[C@H]21 (relative stereo) [Example 126, 2-propyl-N-{(3aS*,4S*,6aR*)-2-[3-(trifluoromethyl)benzyl]octahydrocyclopenta[c]pyrrol-4-yl}pentanamide]	0.95	
CN[C@@H](CC(C)C)C(=O)N[C@H]1CC[C@@H]2CN(c3ccnc(C(F)(F)F)n3)C[C@@H]21 [Example 723, N^2-methyl-N-{(3aR,4S,6aS)-2-[2-(trifluoromethyl)pyrimidin-4-yl]octahydrocyclopenta[c]pyrrol-4-yl}-L-leucinamide]	11.9	
CC(C)(C)CN[C@@H](CC(C)(C)C)C(=O)N[C@H]1CC[C@@H]2CN(S(=O)(=O)c3ccc(C(F)(F)F)cc3)C[C@@H]21 [Example 505, 4-methyl-N^2-neopentyl-N^1-((3aR,4S,6aS)-2-{[4-(trifluoromethyl)phenyl]sulfonyl}octahydrocyclopenta[c]pyrrol-4-yl)-L-leucinamide]		2.23
CC(C)C[C@H](NS(=O)(=O)C1CC1)C(=O)N[C@@H]1CC[C@H]2CN(Cc3cccc(C(F)(F)F)c3)C[C@H]21 [Example 172, N^2-(cyclopropylsulfonyl)-N^1-{(3aS,4R,6aR)-2-[3-(trifluoromethyl)benzyl]octahydrocyclopenta[c]pyrrol-4-yl}-L-leucinamide]		2.03
O=C(CC(c1ccc(F)cc1)c1ccc(F)cc1)N[C@@H]1CC[C@H]2CN(Cc3cccc(C(F)(F)F)c3)C[C@H]21 (relative stereo) [Example 143, 3,3-bis(4-fluorophenyl)-N-{(3aS*,4R*,6aR*)-2-[3-(trifluoromethyl)benzyl]octahydrocyclopenta[c]pyrrol-4-yl}propanamide]		0.61
CN[C@@H](CC(C)C)C(=O)N[C@H]1CC[C@@H]2CN(c3cccc(F)c3F)C[C@@H]21 [Example 730, N-[(3aR,4S,6aS)-2-(2,3-difluorophenyl)octahydrocyclopenta[c]pyrrol-4-yl]-N^2-methyl-L-leucinamide]	1.26	
O=C(N[C@H]1CC[C@H]2CN(Cc3cccc(F)c3)C[C@H]21)C(C1CCCCC1)C1CCCCC1 [Example 64, 2,2-dicyclohexyl-N-[(3aS,4S,6aR)-2-(3-fluorobenzyl)octahydrocyclopenta[c]pyrrol-4-yl]acetamide]	0.99	
CCC[C@H](N)C(=O)N[C@H]1CC[C@@H]2CN(Cc3ccc(C(F)(F)F)cc3)C[C@@H]21 [Example 382, N^1-{(3aR,4S,6aS)-2-[4-(trifluoromethyl)benzyl]octahydrocyclopenta[c]pyrrol-4-yl}-L-norvalinamide]		14.4
O=C(N[C@@H]1CC[C@H]2CN(Cc3ccc(C(F)(F)F)c(F)c3)C[C@H]21)C(C1CCCCC1)C1CCCCC1 [Example 76, 2,2-dicyclohexyl-N-{(3aS,4R,6aR)-2-[3-fluoro-4-(trifluoromethyl)benzyl]octahydrocyclopenta[c]pyrrol-4-yl}acetamide]		5.67
CC(C)C[C@H](NS(C)(=O)=O)C(=O)N[C@@H]1CC[C@H]2CN(Cc3cccc(C(F)(F)F)c3)C[C@H]21 [Example 170, N^2-(methylsulfonyl)-N^1-{(3aS,4R,6aR)-2-[3-(trifluoromethyl)benzyl]octahydrocyclopenta[c]pyrrol-4-yl}-L-leucinamide]		4.55

SMILES	IC50 [µM]	IC50 [1] [µM]
O=C(N[C@@H]1CC[C@H]2CN(Cc3ccccc3)C[C@H]21)C(c1ccccc1)C1CCCC1 (stereo partly drawn) [Example 17, N-[(3aS,4R,6aR)-2-benzyloctahydrocyclopenta[c]pyrrol-4-yl]-2-cyclopentyl-2-phenylacetamide]		1.57
CC(C)C[C@@H](N)C(=O)N[C@@H]1CC[C@H]2CN(Cc3cccc(C(F)(F)F)c3)C[C@H]21 (relative stereo) [Example 162, N^1-{(3aS*,4R*,6aR*)-2-[3-(trifluoromethyl)benzyl]octahydrocyclopenta[c]pyrrol-4-yl}-D-leucinamide]		3.94
CN[C@@H](CC(C)(C)C)C(=O)N[C@H]1CC[C@@H]2CN(c3ccc(C(F)(F)F)cn3)C[C@@H]21 [Example 602, N^2,4-dimethyl-N-{(3aR,4S,6aS)-2-[5-(trifluoromethyl)pyridin-2-yl]octahydrocyclopenta[c]pyrrol-4-yl}-L-leucinamide]	1.88	
Cc1c(CN[C@H]2CC[C@@H]3CN(c4cccc(C(F)(F)F)n4)C[C@@H]32)[nH]c2ccccc12 [Example 664, (3aR,4S,6aS)-N-[(3-methyl-1H-indol-2-yl)methyl]-2-[6-(trifluoromethyl)pyridin-2-yl]octahydrocyclopenta[c]pyrrol-4-amine]	1.69	
CN[C@@H](CC(C)C)C(=O)N[C@H]1CC[C@@H]2CN(c3ccc(F)cc3C(F)(F)F)C[C@@H]21 [Example 737, N-{(3aR,4S,6aS)-2-[4-fluoro-2-(trifluoromethyl)phenyl]octahydrocyclopenta[c]pyrrol-4-yl}-N^2-methyl-L-leucinamide]	0.36	
O=C(N[C@H]1CC[C@H]2CN(Cc3ccccc3)C[C@H]21)C1(c2ccccc2)CCCCC1 (relative stereo) [Example 9, N-[(3aS*,4S*,6aR*)-2-benzyloctahydrocyclopenta[c]pyrrol-4-yl]-1-phenylcyclohexanecarboxamide]	1.04	
CN[C@H]1CC[C@@H]2CN(S(=O)(=O)c3ccc(C(F)(F)F)cc3)C[C@@H]21 [Example 301, (3aR,4S,6aS)-N-methyl-2-{[4-(trifluoromethyl)phenyl]sulfonyl}octahydrocyclopenta[c]pyrrol-4-amine]	> 9	
O=C(N[C@H]1CC[C@H]2CN(Cc3cccc(C(F)(F)F)c3)C[C@H]21)C(O)C1CCCCC1 (stereo partly drawn) [Example 237, 2-cyclohexyl-2-hydroxy-N-{(3aS,4S,6aR)-2-[3-(trifluoromethyl)benzyl]octahydrocyclopenta[c]pyrrol-4-yl}acetamide]	1.46	
CCC[C@H](NCC(C)(C)C)C(=O)N[C@H]1CC[C@@H]2CN(S(=O)(=O)c3ccc(C(F)(F)F)cc3)C[C@@H]21 [Example 257, N^2-neopentyl-N^1-((3aR,4S,6aS)-2-{[4-(trifluoromethyl)phenyl]sulfonyl}octahydrocyclopenta[c]pyrrol-4-yl)-L-norvalinamide]	0.7	
Cc1cnc(C(=O)N[C@H]2CC[C@@H]3CN(c4cccc(C(F)(F)F)n4)C[C@@H]32)cn1 [Example 579, 5-methyl-N-{(3aR,4S,6aS)-2-[6-(trifluoromethyl)pyridin-2-yl]octahydrocyclopenta[c]pyrrol-4-yl}pyrazine-2-carboxamide]	2.63	
CC(C)C(C(=O)N[C@H]1CC[C@@H]2CN(CCCCC(c3ccc(F)cc3)c3ccc(F)cc3)C[C@@H]21)c1ccccc1 (stereo partly drawn) [Example 119, N-{(3aR,4S,6aS)-2-[5,5-bis(4-fluorophenyl)pentyl]octahydrocyclopenta[c]pyrrol-4-yl}-3-methyl-2-phenylbutanamide]		1.12
CCC[C@@H](C(=O)N[C@@H]1CC[C@@H]2CN(S(=O)(=O)c3ccc(C(F)(F)F)cc3)C[C@@H]21)N(C)C(=O)OC(C)(C)C [Example 328, tert-butyl methyl((S)-1-oxo-1-((3aR,4R,6aS)-2-(4-(trifluoromethyl)phenylsulfonyl)octahydrocyclopenta[c]pyrrol-4-ylamino)pentan-2-yl)carbamate]		1.39
CC(C)(C)[C@H](C(=O)N[C@@H]1CC[C@H]2CN(Cc3ccccc3)C[C@H]21)c1ccccc1 [Example 31, (2S)-N-[(3aS,4R,6aR)-2-benzyloctahydrocyclopenta[c]pyrrol-4-yl]-3,3-dimethyl-2-phenylbutanamide]		1.65
CN[C@@H](CC(C)C)C(=O)N[C@H]1CC[C@@H]2CN(c3cccnc3C(F)(F)F)C[C@@H]21 [Example 767, N^2-methyl-N-{(3aR,4S,6aS)-2-[2-(trifluoromethyl)pyridin-3-yl]octahydrocyclopenta[c]pyrrol-4-yl}-L-leucinamide]	6.93	
FC(F)(F)c1cccc(N2C[C@H]3CC[C@H](NCc4ccn[nH]4)[C@H]3C2)n1 [Example 663, (3aR,4S,6aS)-N-(1H-pyrazol-5-ylmethyl)-2-[6-(trifluoromethyl)pyridin-2-yl]octahydrocyclopenta[c]pyrrol-4-amine]	1.89	

Source: patent US8691865B2 (AbbVie Inc., priority 2008, dated 2014)
